Patent US8883789B2, “Piperazine derivatives and their use as positive allosteric modulators of mGluR5 receptors” (Boehringer Ingelheim International GmbH, priority 2011, dated 2014)

target: T1, human recombinant mGluR5 (Homo sapiens, UniProt P41594); test: positive modulation of mGluR5, calcium based FLIPR assay; conditions: HEK 293 cell line expressing human recombinant mGluR5; Ca2+ peak height after glutamate at approximately 5% basal stimulation; nonlinear regression
T1 construct: expressed in transfected cells; hygromycin and geneticin selection
How it was run: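 HEK293 cells with tetracycline-free induction, Calcium-4 dye-loaded in Ringer pH 7.4. Compound added 5 min before glutamate at ~5% of maximal effect, 1% DMSO. EC50 from peak Ca2+ fluorescence, normalized to basal glutamate (100%) and 10 μM CDPPB (200%), via nonlinear regression.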

T1 sequence (P41594 21-1212): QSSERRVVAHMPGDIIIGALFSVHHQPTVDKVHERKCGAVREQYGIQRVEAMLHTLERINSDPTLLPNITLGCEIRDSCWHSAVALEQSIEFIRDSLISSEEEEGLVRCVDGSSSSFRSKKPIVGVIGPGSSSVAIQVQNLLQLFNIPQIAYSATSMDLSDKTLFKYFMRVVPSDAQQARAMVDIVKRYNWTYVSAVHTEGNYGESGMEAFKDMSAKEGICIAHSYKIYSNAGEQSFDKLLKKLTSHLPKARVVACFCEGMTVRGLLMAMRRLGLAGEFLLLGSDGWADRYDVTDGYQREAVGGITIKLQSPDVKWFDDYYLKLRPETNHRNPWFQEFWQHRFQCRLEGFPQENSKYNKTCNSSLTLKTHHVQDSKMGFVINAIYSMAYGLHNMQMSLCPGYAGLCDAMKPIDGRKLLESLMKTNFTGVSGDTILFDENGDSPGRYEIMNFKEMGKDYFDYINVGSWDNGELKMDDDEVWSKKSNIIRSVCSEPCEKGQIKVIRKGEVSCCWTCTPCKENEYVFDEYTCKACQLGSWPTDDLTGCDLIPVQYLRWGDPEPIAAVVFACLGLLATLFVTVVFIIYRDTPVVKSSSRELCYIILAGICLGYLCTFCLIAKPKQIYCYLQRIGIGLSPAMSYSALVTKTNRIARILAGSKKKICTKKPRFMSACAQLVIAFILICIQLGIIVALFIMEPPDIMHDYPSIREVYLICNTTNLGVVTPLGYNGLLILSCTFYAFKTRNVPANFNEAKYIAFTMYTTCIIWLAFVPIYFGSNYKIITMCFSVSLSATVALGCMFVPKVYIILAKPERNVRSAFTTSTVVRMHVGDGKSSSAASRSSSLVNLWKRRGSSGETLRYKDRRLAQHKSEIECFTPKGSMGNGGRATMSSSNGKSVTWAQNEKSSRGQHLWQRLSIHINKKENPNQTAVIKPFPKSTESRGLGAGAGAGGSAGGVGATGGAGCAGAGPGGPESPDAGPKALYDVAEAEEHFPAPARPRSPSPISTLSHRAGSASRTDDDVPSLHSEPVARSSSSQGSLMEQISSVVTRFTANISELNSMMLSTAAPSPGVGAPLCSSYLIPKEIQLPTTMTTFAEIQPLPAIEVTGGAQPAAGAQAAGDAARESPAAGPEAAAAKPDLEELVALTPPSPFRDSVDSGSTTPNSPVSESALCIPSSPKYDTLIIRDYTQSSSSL

EC50	SMILES
113 nM	COc1nc(C(=O)N2CCN(C(=O)c3ncn(-c4ccccc4)n3)C(C)(C)C2)cc2cc(F)c(F)cc12 [Example 148]
568 nM	Cc1c(C(=O)N2CCN(C(=O)c3ncn(-c4cccc(Cl)c4)n3)CC2C)oc2ccc(F)cc12 (stereo not drawn) [Example 212]
353 nM	CC1(C)CN(C(=O)c2ccc(F)c(Cl)c2)CCN1C(=O)c1ncn(-c2ccccc2)n1 [Example 149]
88 nM	COc1nc(C(=O)N2CCN(C(=O)c3ncn(-c4cccc(Cl)c4)n3)C(C)(C)C2)cc2ccccc12 [Example 42]
404 nM	Cc1c(C(=O)N2CCN(C(=O)c3ncn(-c4cccc(Cl)c4)n3)CC2C)oc2ccccc12 (stereo not drawn) [Example 228]
491 nM	CC1(C)CN(C(=O)c2cccc(Cl)c2)CCN1C(=O)c1ncn(-c2ccccc2F)n1 [Example 194]
62 nM	COc1nc(C(=O)N2CCN(C(=O)c3ncn(-c4cccc(Cl)c4)n3)C(C)(C)C2)cc2cc(F)ccc12 [Example 21]
21 nM	Cc1c(C(=O)N2CCN(C(=O)c3ncn(-c4ccccc4)n3)C(C)(C)C2)oc2ccccc12 [Example 134]
54 nM	COc1cccc2c(C)c(C(=O)N3CCN(C(=O)c4ncn(-c5cccc(Cl)c5)n4)C(C)(C)C3)oc12 [Example 68]
314 nM	CC1(C)CN(C(=O)c2noc(-c3ccccc3)n2)CCN1C(=O)c1ncn(-c2ccccc2)n1 [Example 139]
316 nM	COc1cccc(C(=O)N2CCN(C(=O)c3ncn(-c4ccc(F)c(C)c4)n3)C(C)(C)C2)n1 [Example 161]
112 nM	Cc1c(C(=O)N2CCN(C(=O)c3ncn(-c4ccccc4)n3)C(C)(C)C2)oc2ccc(F)cc12 [Example 108]
39 nM	Cc1oc2ccc(Br)cc2c1C(=O)N1CCN(C(=O)c2ncn(-c3cccc(F)c3)n2)C(C)(C)C1 [Example 1, [4-(5-Bromo-2-methyl-benzofuran-3-carbonyl)-2,2-dimethyl-piperazin-1-yl]-[1-(3-fluoro-phenyl)-1H-[1,2,4]triazol-3yl]-methanone]
91 nM	CC(C)Oc1cccc(C(=O)N2CCN(C(=O)c3ncn(-c4ccccc4)n3)C(C)(C)C2)c1 [Example 126]
530 nM	Cc1c(C(=O)N2CCN(C(=O)c3ncn(-c4cccc(Cl)c4)n3)C(C)C2)oc2ccccc12 (stereo not drawn) [Example 279]
114 nM	COc1ccc2oc(C)c(C(=O)N3CCN(C(=O)c4ncn(-c5ccccc5)n4)CC3C)c2c1 (stereo not drawn) [Example 242]

EC50	SMILES
122 nM	Cc1cc2cc(C(=O)N3CCN(C(=O)c4ncn(-c5ccccc5)n4)C(C)(C)C3)ccc2[nH]1 [Example 142]
987 nM	Cc1c(C(=O)N2CCN(C(=O)c3ncn(-c4ccccc4)n3)CC2C)oc2ccc(F)cc12 (stereo not drawn) [Example 241]
88 nM	CC(C)COc1cccc(C(=O)N2CCN(C(=O)c3ncn(-c4ccccc4)n3)C(C)(C)C2)c1 [Example 129]
145 nM	CC(=O)c1cccc(C(=O)N2CCN(C(=O)c3ncn(-c4ccccc4)n3)C(C)(C)C2)n1 [Example 124]
120 nM	Cn1ccc2cc(C(=O)N3CCN(C(=O)c4ncn(-c5cccc(Cl)c5)n4)C(C)(C)C3)ccc21 [Example 82]
142 nM	Cc1c(C(=O)N2CCN(C(=O)c3ncn(-c4ccccc4)n3)C(C)(C)C2)n(C)c2ccccc12 [Example 110]
61 nM	CC1(C)CN(C(=O)c2ccc3ccccc3c2)CCN1C(=O)c1ncn(-c2cccc(Cl)c2)n1 [Example 24]
197 nM	Cc1c(C(=O)N2CCN(C(=O)c3ncn(-c4cccc(F)c4)n3)C(C)(C)C2)n(C)c2ccccc12 [Example 6]
80 nM	CC1(C)CN(C(=O)c2ccc(Cl)c(Cl)c2)CCN1C(=O)c1ncn(-c2cccc(Cl)c2)n1 [Example 27]
123 nM	COc1cc(Cl)cc(C(=O)N2CCN(C(=O)c3ncn(-c4ccccc4)n3)C(C)(C)C2)c1 [Example 121]
53 nM	CCCOc1cccc(C(=O)N2CCN(C(=O)c3ncn(-c4cccc(Cl)c4)n3)C(C)(C)C2)c1 [Example 20]
157 nM	Cc1ccc(Cl)cc1C(=O)N1CCN(C(=O)c2ncn(-c3ccccc3)n2)C(C)(C)C1 [Example 154]
104 nM	CC1(C)CN(C(=O)c2cc(Br)c(Br)o2)CCN1C(=O)c1ncn(-c2cccc(F)c2)n1 [Example 175]
101 nM	CC1(C)CN(C(=O)c2cc(Cl)cc(Cl)c2)CCN1C(=O)c1ncn(-c2ccccc2)n1 [Example 153]
153 nM	Cn1c(CC2CCCC2)nc2ccc(C(=O)N3CCN(C(=O)c4ncn(-c5ccccc5)n4)C(C)(C)C3)cc21 [Example 179, [4-(2-cyclopentylmethyl-3-methyl-3H-benzoimidazole-5-carbonyl)-2,2-dimethyl-piperazin-1-yl]-(1-phenyl-1H-[1,2,4]-triazol-3-yl)-methanone]

Further lines, the molecule ahead of its results:

SMILES	EC50
COc1cccc(C(=O)N2CCN(C(=O)c3ncn(-c4ccccc4)n3)CC2C)n1 (stereo not drawn) [Example 247]	373 nM
CC1CN(C(=O)c2cccc(-c3ccn(C)n3)c2)CCN1C(=O)c1ncn(-c2cccc(Cl)c2)n1 (stereo not drawn) [Example 269]	447 nM
CC1(C)CN(C(=O)c2cccc(C(F)(F)F)n2)CCN1C(=O)c1ncn(-c2cccc(Cl)c2)n1 [Example 13]	22 nM
COc1ccc2c(C)c(C(=O)N3CCN(C(=O)c4ncn(-c5cccc(Cl)c5)n4)CC3C)oc2c1 (stereo not drawn) [Example 213]	817 nM
Cc1ccc2oc(C(=O)N3CCN(C(=O)c4ncn(-c5cccc(Cl)c5)n4)CC3C)c(C)c2c1 (stereo not drawn) [Example 227]	954 nM
CC1(C)CN(C(=O)c2cccc(C(F)(F)F)c2)CCN1C(=O)c1nnn(-c2ccccc2)n1 [Example 166]	15 nM
COCC1(C)CN(C(=O)c2cccc(OC)n2)CCN1C(=O)c1ncn(-c2cccc(C)c2)n1 (stereo not drawn) [Example 310]	802 nM
CC1CN(C(=O)c2sc3ccccc3c2Cl)CCN1C(=O)c1ncn(-c2cccc(Cl)c2)n1 (stereo not drawn) [Example 271]	621 nM
COCC1(C)CN(C(=O)c2cccc(OC)n2)CCN1C(=O)c1ncn(-c2cccc(Cl)c2)n1 (stereo not drawn) [Example 311]	577 nM
COc1cc(C(=O)N2CCN(C(=O)c3ncn(-c4cccc(Cl)c4)n3)C(C)C2)ccc1C (stereo not drawn) [Example 277]	507 nM
CC1(C)CN(C(=O)c2cccc(Cl)c2)CCN1C(=O)c1nnn(-c2ccccc2F)n1 [Example 196]	156 nM
COc1cccc(C(=O)N2CCN(C(=O)c3ncn(-c4cccc(Cl)c4)n3)[C@@H](C)C2)n1 [Example 300, (S)-{4-[1-(3-Chloro-phenyl)-1H-[1,2,4]triazole-3-carbonyl]-3-methyl-piperazin-1-yl}-(6-methoxy-pyridin-2-yl)-methanone]	154 nM
CC1CN(C(=O)c2ncn(-c3cccc(Cl)c3)n2)CCN1C(=O)c1cn(C)c2ccccc12 (stereo not drawn) [Example 230]	570 nM
CC1CN(C(=O)c2ncn(-c3cccc(Cl)c3)n2)CCN1C(=O)c1ccc2c(c1)nc(CC1CCCC1)n2C (stereo not drawn) [Example 229]	512 nM
COc1ccc2c(C)c(C(=O)N3CCN(C(=O)c4ncn(-c5cccc(Cl)c5)n4)C(C)C3)oc2c1 (stereo not drawn) [Example 278]	929 nM
Cc1cccc(-n2cnc(C(=O)N3CCN(C(=O)c4cc(Cl)c5c(c4)OCCO5)C(C)C3)n2)c1 (stereo not drawn) [Example 239]	326 nM

SMILES	EC50
Cc1cccc(-n2cnc(C(=O)N3CCN(C(=O)c4cc(Br)c(Br)o4)[C@@H](C)C3)n2)c1 [Example 255, (S)-[4-(4,5-Dibromo-furan-2-carbonyl)-3-methyl-piperazin-1-yl]-(1-m-tolyl-1H-[1,2,4]triazol-3-yl)-methanone]	152 nM
CC1(C)CN(C(=O)c2cc3ccccc3c(OCC3CC3)n2)CCN1C(=O)c1ncn(-c2cccc(Cl)c2)n1 [Example 85]	109 nM
C[C@@H]1CN(C(=O)c2ncn(-c3cccc(Cl)c3)n2)CCN1C(=O)c1cc(Br)c(Br)o1 [Example 249]	198 nM
COc1cc(Cl)cc(C(=O)N2CCN(C(=O)c3nnn(-c4ccccc4)n3)C(C)(C)C2)n1 [Example 165]	25 nM
Cc1cccc(-n2cnc(C(=O)N3C[C@@H](C)N(C(=O)c4oc5ccc(Cl)cc5c4C)[C@@H](C)C3)n2)c1 [Example 264]	891 nM
Cc1cccc(-n2cnc(C(=O)N3CCN(C(=O)c4cc(Cl)c5c(c4)OCCO5)CC3C)n2)c1 (stereo not drawn) [Example 289]	487 nM
CC1CN(C(=O)c2ncn(-c3cccc(Cl)c3)n2)CCN1C(=O)c1cc2ccccc2o1 (stereo not drawn) [Example 214]	428 nM
COc1cccc(C(=O)N2CCN(C(=O)c3ncn(-c4cccc(C)c4)n3)C(C)C2)n1 (stereo not drawn) [Example 296, [4-(6-Methoxy-pyridine-2-carbonyl)-2-methyl-piperazin-1-yl]-(1-m-tolyl-1H-[1,2,4]-triazol-3-yl)-methanone]	269 nM
COc1cc2cc(C(=O)N3CCN(C(=O)c4ncn(-c5cccc(Cl)c5)n4)C(C)(C)C3)nc(OC)c2cc1OC [Example 32]	179 nM
COc1cccc(C(=O)N2[C@H](C)CN(C(=O)c3ncn(-c4cccc(C)c4)n3)C[C@@H]2C)n1 [Example 263, (2R*,6S*)-1-[(6-Methoxypyridin-2-yl)carbonyl]-2,6-dimethyl-4-{[1-(3-methylphenyl)-1H-[1,2,4]-triazol-3-yl]carbonyl}piperazine]	251 nM
CC1(C)CN(C(=O)c2cc(Cl)cc(C(F)(F)F)c2)CCN1C(=O)c1ncn(-c2cccc(Cl)c2)n1 [Example 29]	109 nM
CCC1CN(C(=O)c2ncn(-c3cccc(Cl)c3)n2)CCN1C(=O)c1cccc(OC)n1 (stereo not drawn) [Example 258, {4-[1-(3-Chloro-phenyl)-1H-[1,2,4]triazole-3-carbonyl]-2-ethyl-piperazin-1-yl}-(6-methoxy-pyridin-2-yl)-methanone]	172 nM
COc1ccc2oc(C)c(C(=O)N3CCN(C(=O)c4ncn(-c5cccc(F)c5)n4)C(C)C3)c2c1 (stereo not drawn) [Example 287]	242 nM
CC1(C)CN(C(=O)c2cccc(Cl)c2)CCN1C(=O)c1nnn(-c2ccc(F)cc2)n1 [Example 193]	173 nM
COc1ccc2oc(C)c(C(=O)N3CCN(C(=O)c4ncn(-c5cccc(C)c5)n4)CC3C)c2c1 (stereo not drawn) [Example 237]	174 nM
COc1cccc(C(=O)N2CCN(C(=O)c3ncn(-c4cccc(F)c4)n3)C3(CCC3)C2)n1 [Example 307]	754 nM
